What was measured:
[1] = system: GGTase II; conditions: cited from earlier work
[2] = cited from earlier work
[3] = system: human myeloma RPMI-8226 cell line; experiment: cells; conditions: RPMI-8226, 48 h, read-out: MTT IC50
[4] = system: human myeloma RPMI-8226 cell line; conditions: RPMI-8226 cells, 48 hr incubation
[5] = system: protein farnesylation or geranylgeranylation; experiment: Cellular assays of protein farnesylation or geranylgeranylation; assay type: cell-based; conditions: data not shown
[6] = target: T1, geranylgeranyl transferase II (GGTase II) (Homo sapiens, UniProt P53611+Q92696); assay type: biochemical; conditions: recombinant enzyme
T1 sequence (Q92696 1-567): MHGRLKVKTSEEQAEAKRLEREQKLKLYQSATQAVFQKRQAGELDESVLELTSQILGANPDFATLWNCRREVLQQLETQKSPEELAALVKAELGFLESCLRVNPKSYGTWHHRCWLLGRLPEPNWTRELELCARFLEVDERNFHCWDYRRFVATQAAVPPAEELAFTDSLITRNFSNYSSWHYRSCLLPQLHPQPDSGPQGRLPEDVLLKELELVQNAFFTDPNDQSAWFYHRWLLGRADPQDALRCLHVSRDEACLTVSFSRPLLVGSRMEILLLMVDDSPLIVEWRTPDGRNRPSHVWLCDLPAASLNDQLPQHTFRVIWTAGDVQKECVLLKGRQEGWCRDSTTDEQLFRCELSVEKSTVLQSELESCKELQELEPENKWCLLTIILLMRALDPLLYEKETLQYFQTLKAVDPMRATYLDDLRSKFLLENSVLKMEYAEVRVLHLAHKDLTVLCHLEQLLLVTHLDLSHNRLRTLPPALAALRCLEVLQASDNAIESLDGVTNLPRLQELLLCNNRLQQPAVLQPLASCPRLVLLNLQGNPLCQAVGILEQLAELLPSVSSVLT
T1 sequence (P53611 1-331): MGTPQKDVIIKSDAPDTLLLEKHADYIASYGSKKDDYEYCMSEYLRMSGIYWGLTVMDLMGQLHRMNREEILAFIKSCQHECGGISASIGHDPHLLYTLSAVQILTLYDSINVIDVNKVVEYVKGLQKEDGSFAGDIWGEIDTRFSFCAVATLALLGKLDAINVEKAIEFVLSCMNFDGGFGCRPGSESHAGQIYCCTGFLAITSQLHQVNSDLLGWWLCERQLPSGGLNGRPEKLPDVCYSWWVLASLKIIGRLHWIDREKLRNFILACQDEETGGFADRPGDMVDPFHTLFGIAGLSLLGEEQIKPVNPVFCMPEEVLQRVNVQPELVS

| SMILES | IC50 [3] [µM] | activity as a GGTase II inhibitor (in words) [6] | other results |
| --- | --- | --- | --- |
| O=C(O)C(O)(Cc1cnc2ccccn12)P(=O)(O)O (single isomer, unassigned; (+)) [(+)-3-IPEHPC] |  |  | potency relative to 3-PEHPC [1]: more potent than 3-PEHPC; type of inhibition with respect to GGPP [1]: mixed-type inhibitor; type of inhibition with respect to Rab [1]: uncompetitive inhibitor |
| O=C(O)C(O)(Cc1cccnc1)P(=O)(O)O (stereo not drawn) [Compound 3-PEHPC] |  |  | selectivity for GGTase II (in words) [1]: good selectivity for GGTase II; concentrations required to observe cellular effects [2]: millimolar concentrations are required |
| O=P(O)(O)C(Cc1cn(Cc2ccccc2)nn1)P(=O)(O)O [Compound 11a] | > 1000 |  |  |
| O=P([O-])([O-])C(Cc1cn(Cc2ccc3ccccc3c2)nn1)P(=O)([O-])[O-].[Na+].[Na+].[Na+].[Na+] [Compound 11b] | 200 |  | cytotoxic potency in the MTT assay (in words) [4]: most potent; effect on protein farnesylation or geranylgeranylation [5]: does not affect protein farnesylation or geranylgeranylation |

Further lines, with some results ahead:

| IC50 [3] [µM] | activity as a GGTase II inhibitor (in words) [6] | SMILES | other results |
| --- | --- | --- | --- |
| > 1000 | no activity | CC(C)=CCCC(C)=CCn1cc(CC(P(=O)([O-])[O-])P(=O)([O-])[O-])nn1.[Na+].[Na+].[Na+].[Na+] [Compound 11c] |  |
| 900 | modest activity | CC(C)=CCC/C(C)=C/CCC(C)=CCn1cc(CC(P(=O)([O-])[O-])P(=O)([O-])[O-])nn1.[Na+].[Na+].[Na+].[Na+] [Compound 11d] |  |
| 1000 | most active compound | CC(C)=CCC/C(C)=C/CC/C(C)=C/CCC(C)=CCn1cc(CC(P(=O)([O-])[O-])P(=O)([O-])[O-])nn1.[Na+].[Na+].[Na+].[Na+] [Compound 11e] |  |
